According to the NIST ThermoML archive (doi:10.1021/je4004405):

Assays:
[1] = 298.15 K, 101.33 kPa, Liquid
[2] = wn = mass fraction of the nth substance listed; details: 101 kPa, Liquid; for viscosity: Capillary tube (Ostwald / Ubbelohde) method; for mass density: Pycnometric method

CCCCOCCO [2-butoxyethan-1-ol]
[1]
Details | mass density [kg/m3] | viscosity [mPa·s]
Capillary tube (Ostwald / Ubbelohde) method | – | 2.782
Pycnometric method | 896.16 | –

CCCCOCCO [2-butoxyethan-1-ol] + O
[2]
Details | mass density, 298.15 K [kg/m3] | mass density, 303.15 K [kg/m3] | mass density, 308.15 K [kg/m3] | mass density, 313.15 K [kg/m3] | viscosity, 298.15 K [mPa·s] | viscosity, 303.15 K [mPa·s] | viscosity, 308.15 K [mPa·s] | viscosity, 313.15 K [mPa·s]
w1 = 0.2 | 986.46 | 982.92 | 980.38 | 977.64 | 1.849 | 1.622 | 1.465 | 1.302
w1 = 0.4 | 967.1 | 964.31 | 961.45 | 958.48 | 2.998 | 2.635 | 2.334 | 2.054
w1 = 0.6 | 948.1 | 944.74 | 941.59 | 937.57 | 3.918 | 3.394 | 2.921 | 2.539
w1 = 1 | 896.16 | 892.74 | 888.88 | 884.29 | 2.782 | 2.499 | 2.206 | 1.946
